{
  "source": "patent US20260070919A1",
  "about": "“CRYSTAL FORM OF FIVE-MEMBERED AND SIX-MEMBERED HETEROCYCLIC COMPOUND, PREPARATION METHOD THEREFOR, AND USE THEREOF” (BEIJING MAXINOVEL PHARMACEUTICALS CO., LTD., priority 2022, published 2026)",
  "format_in_all_cases": "physicochemical",
  "key": {"[1]": {"assay": "Dynamic vapor sorption (DVS)", "conditions": "for weight gain from 0% RH to 95% RH (moisture absorption): 25° C., weight percentage", "protocol": "(§1) A sample of crystal form I of the compound represented by formula 1 (10 mg) was weighed, and dried for 60 minutes at a temperature of 25° C. and a humidity of 0% RH. The moisture absorption characteristics of the sample were tested as the humidity changed from 0% RH to 95% RH, and the desorption characteristics of the sample were tested as the humidity changed from 95% RH to 0% RH. The humidity change in each step was 5% RH, with an equilibrium criterion of a weight change rate of less than 0.01%/min within 5 minutes and a maximum equilibration time of 2 hours.\nas §1, with “II” for “I”\nas §1, with “III” for “I”"}, "[2]": {"assay": "Stability test (influencing factors and accelerated conditions; HPLC, appearance, XRPD, DSC)", "protocol": "Appropriate amounts of crystal form II and crystal form III of the compound represented by formula 1 were accurately weighed into 20 mL colorless transparent glass vials, which were placed under corresponding influencing factors (high temperature at 60° C., high humidity of 92.5% RH) and accelerated conditions (40° C./75% RH) respectively. After 1 week and 2 weeks, the samples were removed for HPLC analysis to determine the content and related substances, thereby evaluating the chemical stability of crystal form II and crystal form III. The samples were also characterized by appearance, XRPD, and DSC to assess the physical stability of the two crystal forms. Additionally, samples of crystal form II and crystal form III were accurately weighed into 20 mL colorless transparent glass vials, which were tightly sealed and stored in a −20° C. freezer as standard samples for HPLC analysis."}, "[3]": {"assay": "XRPD re-characterization of the precipitated sample after days", "protocol": "20 mg of the compound represented by formula 1 was weighed into a glass vial, which was placed in a 50° C. water bath with a rotational speed of 400 rpm. 90 times the volume of ethyl acetate as good solvent was added to the vial, and the mixture was heated to obtain a clarified solution, which was maintained at the same temperature for 15 minutes. 70 times the volume of n-heptane as anti-solvent was slowly added dropwise thereto under stirring to precipitate a solid, and the mixture was stirred for another 10 minutes. A sample was taken and centrifuged, naturally dried, and characterized by XRPD as crystal form II.\nFollowing the same operational procedure as in method 3, crystal form II was also obtained by using the good solvent and anti-solvent listed in the table below.\nMethod: An appropriate amount of sample was taken and spread evenly on a single-crystal silicon wafer, and XRPD testing was conducted at room temperature. The specific experimental parameters were as follows: the light source was CuKα, the X-ray intensity was 40 kV/40 mA, the scanning mode was Theta-theta, the scanning angle range was 4° to 40°, the step size was 0.05°, and the scanning speed was 0.5 seconds per step."}, "[4]": {"conditions": "after 2 weeks under −20° C., high temperature, high humidity, light, and accelerated conditions"}},
  "data": [
    {"smiles": "CCS(=O)(=O)N1CC(CC#N)(n2cc(-c3nc(Nc4cnn(C)c4)nc4ccsc34)cn2)C1", "note": "[Crystal form III]", "values": [
      {"measurement": "weight gain from 0% RH to 95% RH (moisture absorption)", "setting": "[1]", "value": 0.4084, "unit": "%"},
      {"measurement": "Appearance", "setting": "[2]; Accelerated (40° C./75%)", "value": "Bright yellow"},
      {"measurement": "Appearance", "setting": "[2]; High humidity (92.5% RH)", "value": "Bright yellow"},
      {"measurement": "Appearance", "setting": "[2]; High temperature (60° C.)", "value": "Bright yellow"},
      {"measurement": "chemical stability", "setting": "[2]; [4]", "value": "good chemical stability"},
      {"measurement": "physical stability (crystal form conversion)", "setting": "[2]; [4]", "value": "partial conversion of crystal form III to crystal form II"},
      {"measurement": "Appearance", "setting": "[2]; control group, −20° C.", "value": "Bright yellow"}
    ]},
    {"smiles": "CCS(=O)(=O)N1CC(CC#N)(n2cc(-c3nc(Nc4cnn(C)c4)nc4ccsc34)cn2)C1", "note": "[Crystal form II]", "values": [
      {"measurement": "hygroscopicity (in words)", "setting": "[1]; 0% RH to 95% RH", "value": "almost no hygroscopicity"},
      {"measurement": "weight gain from 0% RH to 95% RH (moisture absorption)", "setting": "[1]", "value": 0.1047, "unit": "%"},
      {"measurement": "Appearance", "setting": "[2]; Accelerated (40° C./75%)", "value": "Yellow"},
      {"measurement": "Appearance", "setting": "[2]; High humidity (92.5% RH)", "value": "Yellow"},
      {"measurement": "Appearance", "setting": "[2]; High temperature (60° C.)", "value": "Yellow"},
      {"measurement": "Appearance", "setting": "[2]; control group, −20° C.", "value": "Yellow"},
      {"measurement": "physicochemical stability", "setting": "[2]; −20° C., high temperature, high humidity, and accelerated conditions", "value": "good physicochemical stability"},
      {"measurement": "crystal form by XRPD after standing", "setting": "[3]; after 6 days, good solvent / methyl tert-butyl ether", "value": "remained as crystal form II"},
      {"measurement": "crystal form by XRPD after standing", "setting": "[3]; after 8 days, ethyl acetate / n-heptane", "value": "remained as crystal form II"}
    ]},
    {"smiles": "CCS(=O)(=O)N1CC(CC#N)(n2cc(-c3nc(Nc4cnn(C)c4)nc4ccsc34)cn2)C1", "note": "[Crystal form I]", "values": [
      {"measurement": "weight gain from 0% RH to 95% RH (moisture absorption)", "setting": "[1]", "value": 3.025, "unit": "%"}
    ]}
  ]
}
